Laboratory results as given in PubChem BioAssay AID248 (DTP/NCI, 2004).
Inconclusive results and toxic doses are left out.

Tested on: L1210 leukemia ip in BDF1 mice, survival T/C
Assay: NCI In Vivo Anticancer Drug Screen. Data for tumor model L1210 Leukemia (intraperitoneal) in B6D2F1 (BDF1) mice
Settings: endpoint: mean survival time, higher = longer survival
In short: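 In this screen, tumor-bearing mice given compound are compared to those given vehicle, and their survival values are reported as a treated-to-control quotient.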

[1] = dose: 50.0 mg/kg/injection, schedule: Q01DX009 (ip), vehicle: saline with Tween-80
[2] = dose: 100.0 mg/kg/injection, schedule: Q01DX009 (ip), vehicle: saline with Tween-80
[3] = dose: 200.0 mg/kg/injection, schedule: Q01DX009 (ip), vehicle: saline with Tween-80
[4] = dose: 100.0 mg/kg/injection, schedule: Q04DX002 (ip), vehicle: Klucel (hydroxypropylcellulose) (HPC)
[5] = dose: 50.0 mg/kg/injection, schedule: Q01DX009 (ip), vehicle: saline
[6] = dose: 100.0 mg/kg/injection, schedule: Q01DX009 (ip), vehicle: saline
[7] = dose: 100.0 mg/kg/injection, schedule: Q01DX001 (ip), vehicle: saline
[8] = dose: 75.0 mg/kg/injection, schedule: Q01DX001 (ip), vehicle: saline
[9] = dose: 100.0 mg/kg/injection, schedule: Q04DX003 (ip), vehicle: saline
[10] = dose: 200.0 mg/kg/injection, schedule: Q01DX009 (ip), vehicle: saline
[11] = dose: 200.0 mg/kg/injection, schedule: Q04DX003 (ip), vehicle: saline
[12] = dose: 400.0 mg/kg/injection, schedule: Q04DX003 (ip), vehicle: saline
[13] = dose: 150.0 mg/kg/injection, schedule: Q01DX001 (ip), vehicle: saline
[14] = dose: 200.0 mg/kg/injection, schedule: Q01DX001 (ip), vehicle: saline
[15] = dose: 400.0 mg/kg/injection, schedule: Q01DX001 (ip), vehicle: saline
[16] = dose: 100.0 mg/kg/injection, schedule: Q01DX001 (ip), vehicle: carboxymethylcellulose (CMC)
[17] = dose: 200.0 mg/kg/injection, schedule: Q01DX001 (ip), vehicle: carboxymethylcellulose (CMC)
[18] = dose: 400.0 mg/kg/injection, schedule: Q01DX001 (ip), vehicle: carboxymethylcellulose (CMC)
[19] = dose: 100.0 mg/kg/injection, schedule: Q01DX001 (ip), vehicle: Klucel (hydroxypropylcellulose) (HPC)
[20] = dose: 200.0 mg/kg/injection, schedule: Q01DX001 (ip), vehicle: Klucel (hydroxypropylcellulose) (HPC)
[21] = dose: 100.0 mg/kg/injection, schedule: Q04DX003 (ip), vehicle: saline with Tween-80
[22] = dose: 200.0 mg/kg/injection, schedule: Q04DX003 (ip), vehicle: saline with Tween-80
[23] = dose: 37.5 mg/kg/injection, schedule: Q04DX003 (ip), vehicle: saline
[24] = dose: 100.0 mg/kg/injection, schedule: Q04DX002 (ip), vehicle: saline with Tween-80
[25] = dose: 200.0 mg/kg/injection, schedule: Q04DX002 (ip), vehicle: saline with Tween-80
[26] = dose: 400.0 mg/kg/injection, schedule: Q04DX002 (ip), vehicle: saline with Tween-80
[27] = dose: 100.0 mg/kg/injection, schedule: Q04DX003 (ip), vehicle: Klucel (hydroxypropylcellulose) (HPC)
[28] = dose: 200.0 mg/kg/injection, schedule: Q04DX003 (ip), vehicle: Klucel (hydroxypropylcellulose) (HPC)
[29] = dose: 400.0 mg/kg/injection, schedule: Q04DX003 (ip), vehicle: Klucel (hydroxypropylcellulose) (HPC)

With `CCOC(=O)NC(CI)c1ccccc1` (stereo not given) the T/C [1] was 96 % of control, the T/C [2] was 88 % of control and the T/C [3] was 96 % of control.

`O/N=C(/C(=N/O)c1ccccc1)c1ccccc1.O/N=C(/C(=N/O)c1ccccc1)c1ccccc1.[Pd]` was tested, and the T/C (dose: 50.0 mg/kg/injection, schedule: Q04DX002 (ip), vehicle: Klucel (hydroxypropylcellulose) (HPC)) was 106 % of control, the T/C [4] was 95 % of control and the T/C (dose: 200.0 mg/kg/injection, schedule: Q04DX002 (ip), vehicle: Klucel (hydroxypropylcellulose) (HPC)) was 103 % of control.

`COC(=O)C1(C(=O)OC)C(c2ccccc2)C1(C(=O)OC)C(=O)OC` was tested, and the T/C (dose: 12.5 mg/kg/injection, schedule: Q01DX009 (ip), vehicle: saline with Tween-80) was 94 % of control, the T/C (dose: 25.0 mg/kg/injection, schedule: Q01DX009 (ip), vehicle: saline with Tween-80) was 98 % of control and the T/C [1] was 94 % of control. The T/C [2] was 91 % of control.

With `[N-]=[N+]=NCC1OCOC1C1OCOC1CN=[N+]=[N-]` (stereo not given) the T/C (dose: 25.0 mg/kg/injection, schedule: Q01DX009 (ip), vehicle: saline) was 96 % of control, the T/C [5] was 98 % of control and the T/C [6] was 102 % of control.

For `O=C(C[n+]1ccccc1)c1ccc(Br)cc1`, the T/C [5] was 101 % of control, the T/C [7] was 101 % of control and the T/C [6] was 105 % of control.

`CC(=O)c1cccc(N2C(=O)CC(=P(c3ccccc3)(c3ccccc3)c3ccccc3)C2=O)c1` was tested, and the T/C [8] was 93 % of control.

`COc1ccc(/C=C2\CCC3C(=O)CCCC3(C)C2=O)cc1` (stereo not given) was tested, and the T/C [6] was 95 % of control, the T/C [9] was 100 % of control and the T/C [10] was 104 % of control. For the same compound, the T/C [11] was 117 % of control, the T/C (dose: 400.0 mg/kg/injection, schedule: Q01DX009 (ip), vehicle: saline) was 101 % of control and the T/C [12] was 104 % of control.

For `CN1CCN(CCSC(=O)C(O)(c2ccccc2)C2CCCC2)CC1` (stereo not given), the T/C [13] was 102 % of control.

In the case of `CSCC(NC(=O)OCc1ccccc1)C(=O)O` (stereo not given), the T/C [1] is reported as 111 % of control, the T/C [2] is reported as 111 % of control and the T/C [3] is reported as 101 % of control.

With `C=C(C)Cc1c(C)c(Cl)cc(Cl)c1O` the T/C (dose: 50.0 mg/kg/injection, schedule: Q01DX001 (ip), vehicle: saline) was 103 % of control and the T/C [7] was 103 % of control.

With `NNC(=O)c1cc(N)nc(Cl)c1` the T/C [7] was 96 % of control, the T/C [14] was 96 % of control and the T/C [15] was 98 % of control.

`CCN(C(C)=O)c1ccc([N+](=O)[O-])cc1` was tested, and the T/C [7] was 105 % of control, the T/C [14] was 96 % of control and the T/C [15] was 105 % of control.

In the case of `NC1C(=O)NC(=O)NC1=S` (stereo not given), the T/C (dose: 29.0 mg/kg/injection, schedule: Q01DX Z (ip), vehicle: methylcellulose (MC)) is reported as 100 % of control and the T/C (dose: 45.0 mg/kg/injection, schedule: Q01DX Z (ip), vehicle: methylcellulose (MC)) is reported as 107 % of control.

With `Nc1ccc2c(ccc3ccc4ccccc4c32)c1` the T/C (dose: 75.0 mg/kg/injection, schedule: Q01DX001 (ip), vehicle: carboxymethylcellulose (CMC)) was 97 % of control.

In the case of `COc1ccc(OC)c(/C=N/NC(=O)c2ccccc2Cl)c1`, the T/C [1] is reported as 91 % of control, the T/C [2] is reported as 97 % of control and the T/C [3] is reported as 94 % of control.

`CCNC(=O)c1cc[n+](CC)c(/C=C/c2c[nH]c3ccccc23)c1` was tested, and the T/C [16] was 96 % of control, the T/C [17] was 98 % of control and the T/C [18] was 100 % of control.

With `N/C(=N\N=C\c1ccccn1)c1ccccn1` the T/C (dose: 10.0 mg/kg/injection, schedule: Q01DX001 (ip), vehicle: water) was 93 % of control.

With `CC1(c2ccc3ccccc3c2)OCC2(CCC2)CO1` the T/C [4] was 97 % of control and the T/C (dose: 400.0 mg/kg/injection, schedule: Q04DX002 (ip), vehicle: Klucel (hydroxypropylcellulose) (HPC)) was 107 % of control.

With `CCC(C)C(CCN(C)C)(CNC(=O)CN(CC)CC)c1cccc2ccccc12` (stereo not given) the T/C [6] was 96 % of control and the T/C [10] was 91 % of control.

With `Cc1ccc([N+](=O)[O-])cc1NC(=O)c1ccccc1` the T/C [16] was 93 % of control, the T/C [17] was 96 % of control and the T/C [18] was 93 % of control.

For `CC1N=C(c2ccccc2)C2(c3ccccc3)C(C)N12` (stereo not given), the T/C [19] was 97 % of control and the T/C [20] was 94 % of control.

`C=C(Br)CNS(=O)(=O)c1ccc(OC)cc1` was tested, and the T/C [21] was 92 % of control, the T/C [22] was 101 % of control and the T/C (dose: 400.0 mg/kg/injection, schedule: Q04DX003 (ip), vehicle: saline with Tween-80) was 94 % of control.

`CCOC(=O)C(OC(=O)c1ccccc1)(OC(=O)c1ccccc1)C(=O)OCC` was tested, and the T/C [7] was 101 % of control and the T/C [14] was 93 % of control.

For `CCOCCCN`, the T/C [5] was 103 % of control, the T/C [6] was 95 % of control and the T/C [9] was 100 % of control. For the same compound, the T/C [11] was 106 % of control.

`O=[N+]([O-])c1ccc(N=Nc2ccc3c(c2)-c2ccccc2/C3=C\c2cccc([N+](=O)[O-])c2)cc1` was tested, and the T/C [16] was 93 % of control, the T/C [17] was 96 % of control and the T/C [18] was 98 % of control.

With `COC1OC(COC(c2ccccc2)(c2ccccc2)c2ccccc2)C(O)C(O)C1O` (stereo not given) the T/C (dose: 50.0 mg/kg/injection, schedule: Q01DX009 (ip), vehicle: Klucel (hydroxypropylcellulose) (HPC)) was 89 % of control, the T/C (dose: 100.0 mg/kg/injection, schedule: Q01DX009 (ip), vehicle: Klucel (hydroxypropylcellulose) (HPC)) was 93 % of control and the T/C (dose: 200.0 mg/kg/injection, schedule: Q01DX009 (ip), vehicle: Klucel (hydroxypropylcellulose) (HPC)) was 89 % of control.

`OCC[S+](CCO)CCO` was tested, and the T/C [9] was 105 % of control, the T/C [11] was 102 % of control and the T/C [12] was 104 % of control.

In the case of `O=C1CS/C(=N/N=C/c2ccccc2)N1`, the T/C [1] is reported as 104 % of control, the T/C [2] is reported as 91 % of control and the T/C [3] is reported as 95 % of control.

`NC(=O)C(N)CCCN=C(N)N` (stereo not given) was tested, and the T/C (dose: 37.5 mg/kg/injection, schedule: Q01DX001 (ip), vehicle: Klucel (hydroxypropylcellulose) (HPC)) was 103 % of control, the T/C (dose: 75.0 mg/kg/injection, schedule: Q01DX001 (ip), vehicle: Klucel (hydroxypropylcellulose) (HPC)) was 116 % of control and the T/C (dose: 150.0 mg/kg/injection, schedule: Q01DX001 (ip), vehicle: Klucel (hydroxypropylcellulose) (HPC)) was 100 % of control.

In the case of `CC(C)(N)CC(=O)Oc1ccccc1`, the T/C [23] is reported as 97 % of control, the T/C [8] is reported as 104 % of control and the T/C [13] is reported as 101 % of control. The T/C (dose: 150.0 mg/kg/injection, schedule: Q04DX003 (ip), vehicle: saline) was 92 % of control.

For `CCN(C(=O)c1ccc([N+](=O)[O-])cc1)C(c1ccco1)P(=O)(c1ccccc1)c1ccccc1` (stereo not given), the T/C [24] was 87 % of control, the T/C [25] was 87 % of control and the T/C [26] was 93 % of control.

With `C/C(=C\C(=O)/C=C(\C)NCc1ccccc1)NCc1ccccc1` the T/C [27] was 98 % of control, the T/C [28] was 100 % of control and the T/C [29] was 93 % of control.

For `S=C(S)NC1c2ccccc2-c2ccccc21` (tested in a mixture with another compound), the T/C [16] was 94 % of control, the T/C [17] was 90 % of control and the T/C [18] was 96 % of control.

In the case of `NC(=S)N/N=C\c1nccc2ccsc12`, the T/C [24] is reported as 113 % of control, the T/C [25] is reported as 92 % of control and the T/C [26] is reported as 103 % of control.

In the case of `O=C(NCCCl)Nc1ccc(Cl)cc1`, the T/C [19] is reported as 104 % of control, the T/C [20] is reported as 102 % of control and the T/C (dose: 400.0 mg/kg/injection, schedule: Q01DX001 (ip), vehicle: Klucel (hydroxypropylcellulose) (HPC)) is reported as 91 % of control.

With `NC1C(O)CCCC1O` (stereo not given) the T/C [7] was 107 % of control, the T/C [14] was 102 % of control and the T/C [15] was 102 % of control.

For `CCN(CC)CCNC(=O)c1ccc2nc(N)sc2c1`, the T/C [8] was 96 % of control and the T/C [13] was 91 % of control.

With `CCN(CC)C1=C(Cl)C(=O)C(=O)c2cccnc21` the T/C (dose: 18.8 mg/kg/injection, schedule: Q04DX003 (ip), vehicle: saline) was 97 % of control, the T/C [23] was 103 % of control and the T/C [8] was 97 % of control.

For `CS(=O)(=O)OCCN(CCOS(C)(=O)=O)c1ccc(C=Nc2cccc(Br)c2)c(Cl)c1`, the T/C [27] was 111 % of control, the T/C [28] was 111 % of control and the T/C [29] was 120 % of control.

In the case of `O=C(N/N=C\c1ccc(Cl)cc1)c1ccccc1`, the T/C [21] is reported as 99 % of control and the T/C [22] is reported as 100 % of control.
